From patent US11926628B2 (Gilead Sciences, Inc., priority 2021, dated 2024)

How the values were obtained:
human DGKα = human DGKα (Homo sapiens (Human), UniProt P23743); assay: DGKα Biochemical Activity Assay (ADP-Glo); conditions: recombinant DGKα 1 nM, 100 μM ATP, 18:1 DAG/POPS/octylglucoside micelles, 1 hour at 25° C.; geometric mean; read-out: HTBS DGKa 1X ATP KM IC50
From the text: Alternatively, the enzymatic activity of human DGKα was monitored in a biochemical assay in the presence or absence of compounds and using micelles containing 18:1 Diacylglycerol (DAG), 16:0-18:1 PS (POPS) and Octylglucoside as substrate. DGKα activity led to conversion of DAG and ATP to Phosphatidic Acid (PA) and ADP. Levels of ADP were monitored by bioluminescence using the ADP-Glo Kinase Assay (Promega) and were indicative of DGKα activity.
Ten nanoliters of test compound dissolved in DMSO at various concentrations were dispensed into a 384-well low volume nonbinding service white plates (Corning #3824) using a Labcyte Echo instrument. Recombinant DGKα (Carna Biosciences) in assay buffer (5 μL in 50 mM MOPS [3-(N-morpholino) propanesulfonic acid], pH 7.2; 0.0025% Triton X-100; 1 mM dithiothreitol; 5 mM MgCl2, 200 μM ATP) was added to the compound-containing plate and was incubated for 15 minutes at 25° C. A substrate solution (5 μL in 1.7 mM 1,2-dioleoyl-sn-glycerol [18:1 DAG], 13.5 mM 1-palmitoyl-2-oleoyl-sn-glycero-3-phospho-L-serine [16:0-18:1 PS](POPS), 2 μM CaCl2, 100 mM Octylglucoside (OG), 1 mM DTT) (obtained from Carna Biosciences) diluted in DGK ALPHA assay buffer was then added to start the reaction. Final concentrations were 1 nM DGKα, 100 μM ATP, 1 μM calcium chloride, 0.85 mM 1,2-dioleoyl-sn-glycerol (18:1 DAG), 6.75 mM 1-palmitoyl-2-oleoyl-sn-glycero-3-phospho-L-serine (16:0-18:1 PS) (POPS), 1 μM CaCl2), 50 mM Octylglucoside (OG) and 5 mM MgCl2. The reaction mixture was incubated at 25° C. for 1 hour. ADP-Glo Reagent (10 μL, 10 mM Mg added) provided by the kit was added to each well and incubated at 25° C. for 40 minutes. Then, 20 μL of Kinase Detection Reagent was added and incubated at 25° C. for 40 minutes. Luciferase activity of each well was measured via luminescence on an Envision plate reader (PerkinElmer).
Data were normalized based on maximum inhibition (50 μM of kinase inhibitor CU3) and no inhibition (DMSO) controls. Least squares curve fittings were performed using a four-parameter variable slope nonlinear regression model. IC50 was defined as the concentration of compound required to inhibit 50% of maximum activity. IC50 values from multiple experiments were averaged by geometric mean and the standard deviation was calculated.

[1] = tested on: Jurkat NFκB-luciferase cells; assay: Jurkat NFκB-Luciferase Assay; format: cell-based; conditions: Homo sapiens; Jurkat NFκB-luciferase cells activated with anti-CD3 antibody (OKT3), 2.5 hrs at 37° C.; geometric mean; read-out: DGK NFKb Luciferase EC50
Method: The activity of compounds was tested in a cell based NFκB reporter assay. Jurkat cells that are stably expressing a luciferase reporter construct under the transcriptional control of a NFκB reporter element were activated with an anti-CD3 antibody and luciferase levels were measured with a bioluminescence readout. An increase in the levels of bioluminescence was indicative of enhanced T-cell activation following DGKα inhibition by the compound.
Flat-bottom polystyrene plates (384-well, tissue culture treated) were coated overnight at 4° C. with 20 ul/well of a solution of phosphate-buffered saline supplemented with 5 ug/ml anti-CD3 antibody (clone OKT3, Biolegend). The day after, the excess antibody was washed out five times with 100 ul/well of assay medium (RPMI supplemented with 10% fetal bovine serum) using a Biotek EL406 instrument and leaving 20 ul of residual volume in each well. Jurkat NFκB-luciferase cells (Promega #) were harvested and diluted to 1 million cells/ml in assay medium. Sixty nanoliters of test compound dissolved in DMSO at various concentrations were dispensed into 384-well v-bottom polypropylene plates (Greiner) using a Labcyte Echo instrument. Thirty microliters of medium containing the Jurkat NFκB-luciferase cells were then dispensed using a Biotek MicroFlo instrument in each well of the compound-containing plate. The medium/cell/compound mixture was mixed with a Bravo instrument and 20 ul/well of the mixture was transferred to the anti-CD3-coated plate. The assay mixture was then incubated for 2.5 hrs at 37° C. followed by equilibration at 25° C. for 30 min. Forty microliters of One-Glo Ex (Promega) was then added to the assay mixture and luciferase activity was read on a Envision plate reader 7 minutes later.
Bioluminescence data were normalized based on maximum enhancement (1 micromolar of compound) and on basal activation (DMSO) controls. Least squares curve fittings were performed using a four-parameter variable slope nonlinear regression model. EC50 is defined as the concentration of compound required to produce 50% of maximum NFκB luciferase signal. EC50 values from multiple experiments were averaged by geometric mean and the standard deviation was calculated.

human DGKα, sequence (P23743 whole entry): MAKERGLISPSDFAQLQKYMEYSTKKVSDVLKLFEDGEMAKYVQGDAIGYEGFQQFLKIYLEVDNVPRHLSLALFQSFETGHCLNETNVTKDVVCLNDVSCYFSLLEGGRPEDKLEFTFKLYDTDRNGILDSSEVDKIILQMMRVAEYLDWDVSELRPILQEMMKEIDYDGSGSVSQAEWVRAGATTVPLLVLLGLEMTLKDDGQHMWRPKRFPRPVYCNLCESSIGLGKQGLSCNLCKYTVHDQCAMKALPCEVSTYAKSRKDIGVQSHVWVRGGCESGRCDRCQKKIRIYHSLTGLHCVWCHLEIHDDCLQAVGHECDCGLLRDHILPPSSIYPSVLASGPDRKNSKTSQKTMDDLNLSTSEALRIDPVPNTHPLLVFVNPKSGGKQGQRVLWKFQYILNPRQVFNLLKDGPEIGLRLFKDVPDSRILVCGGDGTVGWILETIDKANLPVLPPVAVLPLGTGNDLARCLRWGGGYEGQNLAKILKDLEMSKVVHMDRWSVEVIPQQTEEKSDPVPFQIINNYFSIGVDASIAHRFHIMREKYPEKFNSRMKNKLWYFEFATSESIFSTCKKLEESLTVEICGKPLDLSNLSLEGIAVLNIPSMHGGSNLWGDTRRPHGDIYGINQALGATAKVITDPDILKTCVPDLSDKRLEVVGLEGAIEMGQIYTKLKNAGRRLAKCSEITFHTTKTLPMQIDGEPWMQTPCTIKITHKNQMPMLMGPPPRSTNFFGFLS

Row | Compound | IC50 (human DGKα) [nM] | EC50 [1] [nM]
1 | CN(c1cccc(C#CC(C)(C)O)c1)c1nc2nccn2c2cc(Cl)ccc12 [Example 1, 4-(3-((8-chloroimidazo[1,2-a]quinazolin-5-yl)(methyl)amino)phenyl)-2-methylbut-3-yn-2-ol] | 165 | 14
2 | CN(c1cc(F)cc(C#CC2(C(F)(F)F)CC2)c1)c1nc2cncn2c2cc(Cl)ccc12 [Example 2, 8-chloro-N-[3-fluoro-5-[2-[1-(trifluoromethyl)cyclopropyl]ethynyl]phenyl]-N-methyl-imidazo[1,5-a]quinazolin-5-amine] | 2310 | 5.11
3 | CN(c1cc(F)cc(C#CC(C)(C)O)c1)c1nc2cncn2c2cc(Cl)ccc12 [Example 3, 4-[3-[(8-chloroimidazo[1,5-a]quinazolin-5-yl)-methyl-amino]-5-fluoro-phenyl]-2-methyl-but-3-yn-2-ol] | 839 | 14.6
4 | CN(c1cc(F)cc(C#CC(C)(C)O)c1)c1nc2nnnn2c2ccc(F)cc12 [Example 13, 4-(3-fluoro-5-((7-fluorotetrazolo[1,5-a]quinazolin-5-yl)(methyl)amino)phenyl)-2-methylbut-3-yn-2-ol] | 12.8 | 7.54
5 | Cc1nnc2nc(N(CC(F)F)c3cc(F)cc(C#CC(C)(C)O)c3)c3ncccc3n12 [Example 17, 4-(3-((2,2-difluoroethyl)(1-methylpyrido[2,3-e][1,2,4]triazolo[4,3-a]pyrimidin-5-yl)amino)-5-fluorophenyl)-2-methylbut-3-yn-2-ol] | 77.7 | 44.3
6 | Cc1nnc2nc(N(CC(F)F)c3cc(F)cc(C#CC4(C(F)(F)F)CC4)c3)c3ncccc3n12 [Example 18, N-(2,2-difluoroethyl)-N-(3-fluoro-5-((1-(trifluoromethyl)cyclopropyl)ethynyl)phenyl)-1-methylpyrido[2,3-e][1,2,4]triazolo[4,3-a]pyrimidin-5-amine] | 64.4 | 4.73
7 | CC(C)(O)C#Cc1cc(F)cc(N(CC(F)F)c2nc3nncn3c3cccnc23)c1 [Example 19, 4-(3-((2,2-difluoroethyl)(pyrido[2,3-e][1,2,4]triazolo[4,3-a]pyrimidin-5-yl)amino)-5-fluorophenyl)-2-methylbut-3-yn-2-ol] | 67.6 | 47.7
8 | Cc1nnc2nc(N3CCCc4c(C#CC5(C(F)(F)F)CC5)cccc43)c3c(F)cncc3n12 [Example 41, 6-fluoro-1-methyl-5-(5-((1-(trifluoromethyl)cyclopropyl)ethynyl)-3,4-dihydroquinolin-1(2H)-yl)pyrido[4,3-e][1,2,4]triazolo[4,3-a]pyrimidine] |  | 2.4
9 | CN(c1cccc(C#CC(C)(C)C)c1)c1nc2nncn2c2cnccc12 [Example 60] |  | 6.75
10 | Cc1nnc2nc(N3CCCCc4c(C#CC(C)(C)C#N)cccc43)c3c(F)cncc3n12 [Example 64, 4-(1-(6-fluoro-1-methylpyrido[4,3-e][1,2,4]triazolo[4,3-a]pyrimidin-5-yl)-2,3,4,5-tetrahydro-1H-benzo[b]azepin-6-yl)-2,2-dimethylbut-3-ynenitrile] |  | 5.98
11 | CN(C)c1ccc2c(N(C)c3cccc(C#CC(C)(C)C)c3)nc3nncn3c2n1 [Example 110, N^5-(3-(3,3-dimethylbut-1-yn-1-yl)phenyl)-N^2,N^2,N^5-trimethylpyrido[3,2-e][1,2,4]triazolo[4,3-a]pyrimidine-2,5-diamine] |  | 9.9
12 | COc1ccc(-c2cccc(N(C)c3nc4nncn4c4nc(N(C)C)ccc34)c2)cn1 [Example 111, N^5-(3-(6-methoxypyridin-3-yl)phenyl)-N^2,N^2,N^5-trimethylpyrido[3,2-e][1,2,4]triazolo[4,3-a]pyrimidine-2,5-diamine] |  | 20.1
13 | CN(C)c1ccc2c(N(C)c3cccc(-c4ccc(C5CC5)cc4)c3)nc3nncn3c2n1 [Example 112, N^5-(4′-cyclopropyl-[1,1′-biphenyl]-3-yl)-N^2,N^2,N^5-trimethylpyrido[3,2-e][1,2,4]triazolo[4,3-a]pyrimidine-2,5-diamine] |  | 0.982
14 | CCOc1ccc2c(N(C)c3cccc(-c4ccc(C5CC5)cc4)c3)nc3nncn3c2n1 [Example 113, N-(4′-cyclopropyl-[1,1′-biphenyl]-3-yl)-2-ethoxy-N-methylpyrido[3,2-e][1,2,4]triazolo[4,3-a]pyrimidin-5-amine] |  | 67.2

The next lines start with the values.

Row | IC50 (human DGKα) [nM] | EC50 [1] [nM] | Compound
15 | 27.6 | 0.669 | CN(c1cc(F)cc(-c2cnc(C3CC3)cn2)c1)c1nc2nnnn2c2cc(Cl)ccc12 [Example 4, 8-chloro-N-(3-(5-cyclopropylpyrazin-2-yl)-5-fluorophenyl)-N-methyltetrazolo[1,5-a]quinazolin-5-amine]
16 | 28.4 | 4.2 | CN(c1cccc(-c2ccc(N3CCCS3(=O)=O)cc2)c1)c1nc2nnnn2c2cc(Cl)ccc12 [Example 5, 2-(3′-((8-chlorotetrazolo[1,5-a]quinazolin-5-yl)(methyl)amino)-[1,1′-biphenyl]-4-yl)isothiazolidine 1,1-dioxide]
17 | 15.7 | 1.31 | CN(c1cc(F)cc(-c2cnc(C3CC3)cn2)c1)c1nc2nnnn2c2ccc(F)cc12 [Example 6, N-(3-(5-cyclopropylpyrazin-2-yl)-5-fluorophenyl)-7-fluoro-N-methyltetrazolo[1,5-a]quinazolin-5-amine]
18 | 117 | 7.41 | CCN(c1cc(F)cc(-c2ccc(N3CC4(CC4)CS3(=O)=O)nc2)c1)c1nc2nnnn2c2cc(Cl)ccc12 [Example 7]
19 | 31.1 | 4.66 | CN(c1cc(F)cc(-c2ccc(N3CC4(CC4)CS3(=O)=O)nc2)c1)c1nc2nnnn2c2ccc(F)cc12 [Example 8]
20 | 44.3 | 1.75 | CN(c1cccc(-c2cnc(C3CC3)cn2)c1)c1nc2nnnn2c2cc(Cl)ccc12 [Example 9, 8-chloro-N-(3-(5-cyclopropylpyrazin-2-yl)phenyl)-N-methyltetrazolo[1,5-a]quinazolin-5-amine]
21 | 93.1 | 8.66 | CN(c1cccc(C#CC(C)(C)O)c1)c1nc2nnnn2c2cc(Cl)ccc12 [Example 10, 4-(3-((8-chlorotetrazolo[1,5-a]quinazolin-5-yl)(methyl)amino)phenyl)-2-methylbut-3-yn-2-ol]
22 | 430 | 36.4 | CN(c1cccc(Br)c1)c1nc2nnnn2c2cc(Cl)ccc12 [Example 11, N-(3-bromophenyl)-8-chloro-N-methyltetrazolo[1,5-a]quinazolin-5-amine]
23 | 107 | 2.52 | CN(c1cc(F)cc(C#CC(C)(C)C(F)F)c1)c1nc2nnnn2c2ccc(F)cc12 [Example 12]
24 | 65.7 | 1.54 | CN(c1cc(F)cc(C#CC2(C(F)F)CC2)c1)c1nc2nnnn2c2ccc(F)cc12 [Example 14]
25 | 42.9 | 1.79 | CN(c1cc(F)cc(C#CC(C)(C)C)c1)c1nc2nnnn2c2ccc(F)cc12 [Example 15]
26 | 22.4 | 3.24 | CN(c1cc(F)cc(C#CC2(C(F)(F)F)CC2)c1)c1nc2nnnn2c2ccc(F)cc12 [Example 16]
